Measurements published in PMC3206814, “Stereo-Selectivity of Human Serum Albumin to Enantiomeric and Isoelectronic Pollutants Dissected by Spectroscopy, Calorimetry and Bioinformatics” (PLoS ONE, 2011).

Key:
[1] = target: T1, human serum albumin (HSA) (Homo sapiens, UniProt P02768); test: isothermal titration calorimetry, two-site sequential model; format: binding; conditions: read-out: Kb(M^-1) (converted)
T1 construct: gene ALB; commercial, essentially fatty acid free, full-length mature monomer of 585 residues, dialyzed, used without further purification
T1 sequence (P02768 25-609): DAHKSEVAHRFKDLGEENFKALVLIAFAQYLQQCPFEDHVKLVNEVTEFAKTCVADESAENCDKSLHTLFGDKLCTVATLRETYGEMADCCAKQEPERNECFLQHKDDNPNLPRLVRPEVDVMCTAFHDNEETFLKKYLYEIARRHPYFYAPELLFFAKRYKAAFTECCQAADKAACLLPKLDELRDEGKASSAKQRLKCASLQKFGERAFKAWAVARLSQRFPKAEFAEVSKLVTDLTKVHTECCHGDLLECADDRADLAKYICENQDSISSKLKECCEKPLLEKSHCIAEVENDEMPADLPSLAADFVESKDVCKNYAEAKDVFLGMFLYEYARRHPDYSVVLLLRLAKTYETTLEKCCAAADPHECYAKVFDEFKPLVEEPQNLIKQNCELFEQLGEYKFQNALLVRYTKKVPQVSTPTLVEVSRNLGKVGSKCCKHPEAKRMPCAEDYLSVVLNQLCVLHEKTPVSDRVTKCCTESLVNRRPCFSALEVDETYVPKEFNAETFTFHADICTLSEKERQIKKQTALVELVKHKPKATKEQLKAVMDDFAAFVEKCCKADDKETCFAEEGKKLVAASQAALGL
Description: isothermal titration calorimetry, two-site sequential model on human serum albumin (HSA)

[2] = target: T1, human serum albumin (HSA); test: UV absorption titration at […] nm, […]/dA vs […]/[S] plot; format: binding

Kd [1]: 25.3 µM
Kd [2]: 66.9 µM
Structure (SMILES): Oc1ccc2ccccc2c1 [2N, naphthalen–2–ol]
